The text below walks through data of patent US11591328B2 (XIAMEN BIOTIME BIOTECHNOLOGY CO., LTD., priority 2018, dated 2023).

pEC50, pIC50: −log10 of the molar value. A value given as a limit tells only on which side of the number the result lay.

One data set addresses CSF1R (Homo sapiens (Human), UniProt P07333). The data set can be described thus: CSF1R kinase activity test (HTRF). It is filed as biochemical. The note with it: ATP 8 μM. As for the experimental part: In a 384-well plate, add 10 nL of the test compound to each well with the Echo 550 sample loading device. […] Use this buffer to adjust the concentration of CSF1R to 0.02 ng/ul. Add 5 μL of buffer containing CSF1R to the 384-well plate after centrifugation at 1000 g for 30 seconds and incubate at room temperature for 10 minutes. […] The inhibition rate of each point is obtained by the following formula: […]
Wherein, Ratiopositive: the experimental positive control None; Ratiovehicle: is the test value of 0.1% DMSO. With the compound concentration and inhibition rate on the abscissa and ordinate, the curve was drawn, and the curve was fitted with Graphpad 5.0 software and the IC50 was calculated.
Background: In TR-FRET formats the signal depends on donor and acceptor labels being close together.

A further data set concerns the target c-Kit (Homo sapiens (Human), UniProt P10721). The data set can be described thus: c-Kit kinase activity test (Caliper mobility shift assay). Type of data set: biochemical. The procedure:
(§1) Caliper mobility shift assay was used to determine the kinase activities of c-Kit, PDGFRα, PDGFRβ, and FLT-3.
(§2) The final concentration of the kinase and its corresponding substrate (ATP and peptide substrate P2 or P22) during the experiment is as follows:
(§3) Add 5 μL of compound (10% DMSO) at 5 times the final concentration of the reaction to a 384-well plate. Add 10 μL of 2.5×enzyme solution and incubate for 10 minutes at room temperature, then add 10 μL of 2.5×substrate (ATP and peptide substrate, P2 or P22). After incubating at 28° C. for 60 minutes, add 25 μL stop solution to stop the reaction. Read conversion rate data on Caliper EZ Reader II (Caliper Life Sciences). Convert the conversion rate into inhibition rate data (% inhibition rate=(max−sample conversion rate)/(max−min)×100). Where max refers to the conversion rate of the DMSO control, and min refers to the conversion rate of the control without enzyme activity. Draw a curve with compound concentration and inhibition rate on the abscissa and ordinate, use XLFit excel add-in version 4.3.1 software to fit the curve and calculate IC50.

The target of the next data set is PDGFRβ (Homo sapiens (Human), UniProt P09619). The data set can be described thus: PDGFRβ kinase activity test (Caliper mobility shift assay). It is filed as biochemical. As for the experimental part:
as §1, §2, §3

The nature of data set [1]: Pharmacokinetic evaluation in CD-1 mice, gavage. It is filed as in vivo. The conditions noted are these: 10 mg/kg, plasma; for bioavailability / Cmax / half-life: mouse, po; for half-life: read-out: T½ (converted). From the text:
Using mice as the test animals, the LC/MS/MS method was used to determine that the mice were intragastrically administered the compound of Example 1, the compound of Example 2, the compound of Example 3, the compound of Example 4, the compound of Example 10, and the compound of Example 14. Compound, the concentration of the drug in the plasma at different times after the compound of Example 26. Study the pharmacokinetic behavior of the compound of the present invention in mice and evaluate its pharmacokinetic characteristics.
The test animals were CD-1 mice, purchased from Shanghai Slack Laboratory Animal Co., Ltd.
Weigh a certain amount of drug, add 5% volume of DMSO or DMAc, 5% volume of PEG400 and 90% volume of normal saline to prepare 1.0 mg/mL colorless, clear and transparent liquid or uniformly dispersed suspension.
CD-1 mice were fasted overnight and then administered by gavage. The dosage was 10 mg/kg and the dosage was 10 mL/kg.
Gavage the mice before and after administration at 0.25, 0.5, 1.0, 2.0, 4.0, 6.0, 8.0, 24.0 hours to collect 0.1 mL of blood, place it in a K2-EDTA anticoagulation tube, and centrifuge at 3500 rpm for 10 minutes. Plasma, stored at −20° C.
To determine the content of the test compound in mouse plasma after gavage of different concentrations of drugs: take 20 uL of mouse plasma at each moment after administration, add propranolol and tolbutamide (each 100 ng/mL) 200 uL of acetonitrile solution, vortex for 5 minutes, centrifuge for 12 minutes (4000 rpm), and take 5 uL of the supernatant from the plasma sample for LC/MS/MS analysis.

Another data set has as its target FLT-3 (Homo sapiens (Human), UniProt P36888). The data set can be described thus: FLT-3 kinase activity test (Caliper mobility shift assay). Type of data set: biochemical. As for the experimental part:
as §1, §2, §3

For the next data set, the target named is FMS (Homo sapiens (Human), UniProt P07333).

In general, pIC50 refers to the negative decadic logarithm of the IC50, by convention in mol/L. What is called AUC is the area under the concentration-time curve, a measure of exposure. A higher AUC goes with high exposure. One may read the bioavailability as the share of a dose that reaches the circulation, judged against a reference dose that is usually intravenous. High values mean much systemic uptake, low ones little systemic uptake. As usually defined, the Cmax is the peak of the concentration-time curve. By pEC50 is commonly meant the EC50 on a negative log10 scale, so that one unit is a factor of ten.

Chain of CSF1R (P07333 20-972, species assumed): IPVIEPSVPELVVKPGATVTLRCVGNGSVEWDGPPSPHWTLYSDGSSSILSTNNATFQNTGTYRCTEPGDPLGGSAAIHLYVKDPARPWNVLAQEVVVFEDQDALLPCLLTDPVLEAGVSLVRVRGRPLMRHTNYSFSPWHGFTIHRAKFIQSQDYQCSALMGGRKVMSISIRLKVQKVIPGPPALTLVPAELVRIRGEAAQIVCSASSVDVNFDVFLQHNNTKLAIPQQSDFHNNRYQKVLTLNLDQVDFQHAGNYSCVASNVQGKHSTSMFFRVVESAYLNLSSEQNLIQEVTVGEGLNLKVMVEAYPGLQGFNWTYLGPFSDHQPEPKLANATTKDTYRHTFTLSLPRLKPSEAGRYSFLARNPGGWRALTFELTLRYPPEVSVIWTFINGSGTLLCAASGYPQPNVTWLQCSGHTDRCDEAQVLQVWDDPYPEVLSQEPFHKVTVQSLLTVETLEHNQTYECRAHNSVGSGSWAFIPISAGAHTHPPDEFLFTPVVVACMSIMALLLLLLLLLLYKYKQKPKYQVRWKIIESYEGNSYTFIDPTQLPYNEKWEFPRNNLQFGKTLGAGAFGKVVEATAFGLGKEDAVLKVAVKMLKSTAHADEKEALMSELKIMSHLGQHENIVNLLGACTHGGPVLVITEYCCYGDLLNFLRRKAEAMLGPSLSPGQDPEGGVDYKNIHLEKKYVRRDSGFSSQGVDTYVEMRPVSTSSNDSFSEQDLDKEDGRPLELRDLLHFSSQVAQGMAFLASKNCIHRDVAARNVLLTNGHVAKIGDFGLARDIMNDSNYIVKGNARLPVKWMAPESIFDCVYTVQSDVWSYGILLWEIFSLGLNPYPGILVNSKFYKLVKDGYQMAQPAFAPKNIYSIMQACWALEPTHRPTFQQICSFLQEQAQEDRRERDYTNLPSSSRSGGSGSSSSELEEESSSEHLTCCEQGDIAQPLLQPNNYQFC
Chain of PDGFRβ (P09619 33-1106): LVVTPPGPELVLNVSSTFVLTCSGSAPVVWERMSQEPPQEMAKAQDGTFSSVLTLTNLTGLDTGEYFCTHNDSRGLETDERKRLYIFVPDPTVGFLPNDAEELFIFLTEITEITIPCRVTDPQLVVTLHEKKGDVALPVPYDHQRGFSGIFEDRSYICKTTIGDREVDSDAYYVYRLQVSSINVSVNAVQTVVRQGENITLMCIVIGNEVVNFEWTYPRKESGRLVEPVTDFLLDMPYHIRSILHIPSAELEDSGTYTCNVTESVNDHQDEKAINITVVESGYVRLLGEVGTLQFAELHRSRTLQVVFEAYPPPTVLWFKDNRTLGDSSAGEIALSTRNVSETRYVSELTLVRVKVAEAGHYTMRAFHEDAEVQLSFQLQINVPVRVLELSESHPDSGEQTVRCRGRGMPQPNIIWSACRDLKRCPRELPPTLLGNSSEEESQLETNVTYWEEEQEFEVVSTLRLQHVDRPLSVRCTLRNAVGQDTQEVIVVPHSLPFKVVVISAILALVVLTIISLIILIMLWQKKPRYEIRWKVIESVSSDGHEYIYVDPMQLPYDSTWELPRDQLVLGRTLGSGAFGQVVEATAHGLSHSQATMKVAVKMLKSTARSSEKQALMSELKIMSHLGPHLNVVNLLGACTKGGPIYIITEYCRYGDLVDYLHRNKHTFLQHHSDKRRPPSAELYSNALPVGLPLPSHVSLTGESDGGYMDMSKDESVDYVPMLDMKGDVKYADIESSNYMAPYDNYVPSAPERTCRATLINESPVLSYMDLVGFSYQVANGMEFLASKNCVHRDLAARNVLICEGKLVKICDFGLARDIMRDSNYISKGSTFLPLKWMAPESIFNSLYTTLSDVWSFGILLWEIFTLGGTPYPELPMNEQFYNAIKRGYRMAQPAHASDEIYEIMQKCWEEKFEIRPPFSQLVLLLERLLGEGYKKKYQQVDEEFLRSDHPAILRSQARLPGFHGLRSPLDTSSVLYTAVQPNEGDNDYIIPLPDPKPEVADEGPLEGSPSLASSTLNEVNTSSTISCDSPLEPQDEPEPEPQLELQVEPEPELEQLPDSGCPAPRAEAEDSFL
Chain of c-Kit (P10721 26-976): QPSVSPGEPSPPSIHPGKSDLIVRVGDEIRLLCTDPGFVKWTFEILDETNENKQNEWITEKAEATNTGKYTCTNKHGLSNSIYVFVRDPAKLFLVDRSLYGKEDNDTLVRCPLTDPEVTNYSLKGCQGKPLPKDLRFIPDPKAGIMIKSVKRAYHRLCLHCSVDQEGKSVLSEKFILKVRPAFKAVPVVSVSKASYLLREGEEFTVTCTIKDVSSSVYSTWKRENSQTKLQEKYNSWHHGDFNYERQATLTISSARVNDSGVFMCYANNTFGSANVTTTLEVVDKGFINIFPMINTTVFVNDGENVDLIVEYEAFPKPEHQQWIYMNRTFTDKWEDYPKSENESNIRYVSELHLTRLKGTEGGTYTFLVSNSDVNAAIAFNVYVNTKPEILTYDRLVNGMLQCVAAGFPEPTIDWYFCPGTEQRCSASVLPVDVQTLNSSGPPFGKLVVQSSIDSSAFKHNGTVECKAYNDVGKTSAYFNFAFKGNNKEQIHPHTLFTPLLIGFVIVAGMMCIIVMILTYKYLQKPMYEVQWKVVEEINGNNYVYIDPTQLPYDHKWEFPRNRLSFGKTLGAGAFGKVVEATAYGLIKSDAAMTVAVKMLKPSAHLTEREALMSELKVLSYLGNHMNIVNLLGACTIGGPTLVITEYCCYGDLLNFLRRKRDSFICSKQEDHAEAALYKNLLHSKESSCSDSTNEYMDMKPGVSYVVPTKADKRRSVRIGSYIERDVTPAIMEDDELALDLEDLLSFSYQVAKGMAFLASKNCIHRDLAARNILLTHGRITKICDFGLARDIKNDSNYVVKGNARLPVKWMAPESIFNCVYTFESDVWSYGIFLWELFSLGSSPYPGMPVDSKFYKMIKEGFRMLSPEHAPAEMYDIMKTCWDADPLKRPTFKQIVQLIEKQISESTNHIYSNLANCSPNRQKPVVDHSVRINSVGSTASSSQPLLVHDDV
Chain of FLT-3 (P36888 27-993): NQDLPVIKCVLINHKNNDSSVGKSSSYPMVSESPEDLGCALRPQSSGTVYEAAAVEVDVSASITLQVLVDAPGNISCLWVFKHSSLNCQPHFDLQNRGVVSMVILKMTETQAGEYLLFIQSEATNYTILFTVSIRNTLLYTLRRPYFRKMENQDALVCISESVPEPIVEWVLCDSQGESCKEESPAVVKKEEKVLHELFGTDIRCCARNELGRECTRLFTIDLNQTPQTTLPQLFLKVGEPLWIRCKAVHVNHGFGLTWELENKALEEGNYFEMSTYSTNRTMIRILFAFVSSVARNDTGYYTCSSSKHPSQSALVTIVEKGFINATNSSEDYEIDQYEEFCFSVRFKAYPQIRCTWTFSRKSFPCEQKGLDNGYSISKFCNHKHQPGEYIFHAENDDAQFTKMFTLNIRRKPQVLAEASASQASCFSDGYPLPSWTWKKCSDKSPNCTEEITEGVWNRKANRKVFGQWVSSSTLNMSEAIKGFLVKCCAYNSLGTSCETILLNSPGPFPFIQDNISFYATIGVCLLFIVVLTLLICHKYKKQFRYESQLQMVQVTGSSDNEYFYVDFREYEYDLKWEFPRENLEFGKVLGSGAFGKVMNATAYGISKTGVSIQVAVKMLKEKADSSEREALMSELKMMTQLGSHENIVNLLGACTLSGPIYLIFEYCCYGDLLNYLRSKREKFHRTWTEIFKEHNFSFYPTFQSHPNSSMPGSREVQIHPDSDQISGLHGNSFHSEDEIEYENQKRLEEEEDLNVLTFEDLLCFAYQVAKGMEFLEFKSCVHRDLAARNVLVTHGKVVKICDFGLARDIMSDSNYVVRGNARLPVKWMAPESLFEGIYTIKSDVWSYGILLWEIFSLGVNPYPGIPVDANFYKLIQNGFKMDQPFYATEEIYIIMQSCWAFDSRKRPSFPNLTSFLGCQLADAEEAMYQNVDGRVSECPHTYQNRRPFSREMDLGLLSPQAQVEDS
Chain of FMS (P07333 20-972): as the sequence (P07333 20-972, species assumed) above
Experimental for FMS: Place the culture plate in a cell incubator and incubate for 4 hours. […] Add the diluted recombinant human MCSF to a 24-well plate at 100 μL per well, mix quickly and incubate in an incubator for 4 minutes.

On to `CCc1nc(NC(=O)N2CCC3(CCC(F)(F)CC3)C2=O)ccc1Oc1ccnc(-c2cnn(C)c2)c1` [Compound 16], for which the pIC50 on CSF1R was 8.19.
The same measure, in the same setting: the same measure for `Cn1cc(-c2cc(Oc3ccc(NC(=O)N4CCC5(CCCC(O)C5)C4=O)nc3)ccn2)cn1` (stereo not shown) [Compound 17]: 8.19; for `Cn1cc(-c2cc(Oc3ccc(NC(=O)N4CCC5(CCNCC5)C4=O)nc3)ccn2)cn1` [Compound 11]: 6.52.
Regarding `Cn1cc(-c2cc(Oc3ccc(NC(=O)N4CCC5(CCN(S(C)(=O)=O)CC5)C4=O)nc3)ccn2)cn1` [Compound 13], the pIC50 against CSF1R is 7.60.
On CSF1R, `Cn1cc(-c2cc(Oc3ccc(NC(=O)N4CCC5(CCCCC5)C4=O)nc3)ccn2)cn1` [Compound 2] gave a pIC50 of 8.21. Moreover, the pIC50 on c-Kit was 8.27. Moreover, at PDGFRβ, the pIC50 is 5.80. For the same compound, in data set [1], the exposure (AUC) turned out to be 6100 ng·h/mL, the bioavailability worked out at 71.5%, the highest level (Cmax) was 860 ng/mL and the half-life was 3.14 h.
Turning to `Cn1cc(-c2cc(Oc3ccc(NC(=O)N4CCC5(CCC(F)(F)CC5)C4=O)nc3)ccn2)cn1` [Compound 4], at c-Kit, the pIC50 is 7.80. Further, the pIC50 at PDGFRβ was 6.11. Moreover, the pIC50 on FLT-3 is less than 5.00. In data set [1], the AUC is 38800 ng·h/mL, the bioavailability was found to be 100%, the concentration peaked (Cmax) at 5270 ng/mL and the half-life is 2.64 h.
In the case of `Cn1cc(-c2cc(Oc3ccc(NC(=O)N4CCC5(CCCCC5F)C4=O)nc3)ccn2)cn1` (stereo not shown) [Compound 9], the pIC50 at CSF1R is 8.68.
In the case of `Cn1cc(-c2cc(Oc3ccc(NC(=O)N4CCC5(CCCC(F)(F)C5)C4=O)nc3)ccn2)cn1` (stereo not shown) [Compound 18], the pIC50 is 8.08 on c-Kit, 6.46 on PDGFRβ and 5.06 at FLT-3.
At CSF1R, `Cn1cc(-c2cc(Oc3ccc(NC(=O)N4CCC5(CCCC5(F)F)C4=O)nc3)ccn2)cn1` (stereo not shown) [Compound 8] showed a pIC50 of 8.64.
For `Cn1cc(-c2cc(Oc3ccc(NC(=O)N4CCC5(CCC(F)(F)C5)C4=O)nc3)ccn2)cn1` (stereo not shown) [Compound 25], the pIC50 on c-Kit was 8.30.
With `Cn1cc(-c2cc(Oc3ccc(NC(=O)N4CCC5(CCC(=O)C5)C4=O)nc3)ccn2)cn1` (stereo not shown) [Compound 19], the pIC50 at c-Kit is 7.96; on PDGFRβ, 6.14; on FLT-3 it was less than 5.00.
`Cn1cc(-c2cc(Oc3ccc(NC(=O)N4CCC5(CCCC(F)(F)C5)C4=O)nc3)ccn2)cn1` (stereo not shown) [Compound 24]: the pIC50 on c-Kit is 7.70.
Turning to `Cn1cc(-c2cc(Oc3ccc(NC(=O)N4CCC5(CCCC5)C4=O)nc3)ccn2)cn1` [Compound 3], the pIC50 at CSF1R was 8.96. In addition, the pIC50 on c-Kit is 8.59. Besides, on PDGFRβ, the pIC50 is 5.79. Also, in data set [1], the AUC came out at 15800 ng·h/mL, the bioavailability amounted to 89.5%, the peak level (Cmax) was 3200 ng/mL and the half-life was 3.3 h.
For `Cn1cc(-c2cc(Oc3ccc(NC(=O)N4CCC5(CC(F)(F)C5)C4=O)nc3)ccn2)cn1` [Compound 26], the pIC50 on c-Kit is 8.35. Besides, the pIC50 on PDGFRβ was 5.55. Besides, the pIC50 on FLT-3 was less than 5.00. In data set [1], the AUC was 48300 ng·h/mL, the bioavailability came to 79%, the highest level (Cmax) was 4490 ng/mL and the half-life was 6.72 h.
For the compound `O=C(Nc1ccc(Oc2ccnc(-c3cn[nH]c3)c2)cn1)N1CCC2(CCC(F)(F)CC2)C1=O` [Compound 21], the pIC50 on c-Kit was 8.00; on PDGFRβ it was 5.13.
In the case of `CC(=O)N1CCC2(CC1)CCN(C(=O)Nc1ccc(Oc3ccnc(-c4cnn(C)c4)c3)cn1)C2=O` [Compound 12], the pIC50 against CSF1R was 6.77.
For the compound `Cn1cc(-c2cc(Oc3ccc(NC(=O)N4CCC5(CCCCC5(F)F)C4=O)nc3)ccn2)cn1` (stereo not shown) [Compound 6], the pIC50 at CSF1R is 8.27.
On the same count and under the same terms, in the case of `Cc1ncc(-c2cc(Oc3ccc(NC(=O)N4CCC5(CCC(F)(F)CC5)C4=O)nc3)ccn2)s1` [Compound 23] it was 8.28.
Take `Cn1cc(-c2cc(Oc3ccc(NC(=O)N4CCC5(CCC5)C4=O)nc3)ccn2)cn1` [Compound 1]: the pIC50 on c-Kit is 8.46. Besides, the pIC50 on PDGFRβ was 5.54. Further, the pIC50 at FLT-3 was less than 5.00. In data set [1], the AUC amounted to 26600 ng·h/mL, the bioavailability was determined as 100%, the highest level (Cmax) was 3390 ng/mL and the half-life is 2.73 h.
The compound `Cn1cc(-c2cc(Oc3ccc(NC(=O)N4CCC5(CC5)C4=O)nc3)ccn2)cn1` [Compound 10] gave a pIC50 on CSF1R of 9.26. In data set [1], the AUC turned out to be 21300 ng·h/mL, the bioavailability came out at 64%, the Cmax was 2240 ng/mL and the half-life was 5.18 h. Besides, on FMS, the pEC50 is 8.40.
On CSF1R, `CN1CCC(c2ccc(-c3cc(Oc4ccc(NC(=O)N5CCC6(CCC(F)(F)CC6)C5=O)nc4)ccn3)cc2)CC1` [Compound 22] had a pIC50 of 8.17.
For the compound `Cc1nc(NC(=O)N2CCC3(CCC(F)(F)CC3)C2=O)ccc1Oc1ccnc(-c2cnn(C)c2)c1` [Compound 14], the pIC50 at c-Kit was 7.77. Further, the pIC50 at PDGFRβ is less than 5.00. At FLT-3, the pIC50 was less than 5.00. For the same compound, in data set [1], the AUC came to 20300 ng·h/mL, the bioavailability worked out at 67.3%, the Cmax amounted to 1400 ng/mL and the half-life is 5.91 h.
`Cc1nc(NC(=O)N2CCC3(CCC3)C2=O)ccc1Oc1ccnc(-c2cnn(C)c2)c1` [Compound 15]: the pIC50 at c-Kit is 7.54; at PDGFRβ it was less than 5.00; at FLT-3 it was less than 5.00.
For `Cn1cc(-c2cc(Oc3ccc(NC(=O)N4CCC5(CCOCC5)C4=O)nc3)ccn2)cn1` [Compound 5], the pIC50 at CSF1R was 8.04.
On the same count and under the same terms, the same measure for `Cn1cc(-c2cc(Oc3ccc(NC(=O)N4CCC5(CCCO5)C4=O)nc3)ccn2)cn1` (stereo not shown) [Compound 7]: 8.57.
